{"source": "patent US10383910B2", "about": "“Methods of increasing fertility of a male subject with costus speciosus extract” (priority 2016, dated 2019)", "key": {"[1]": {"experiment": "body weights of rats after 90 days of treatment", "type": "in vivo, rat", "protocol": "(§1) Statistical analyses were performed using SPSS software version 21.00. One-way analysis of variance (ANOVA), post-hoc and least significant difference (LSD) were performed for intergroup comparisons. P>0.05, P≤0.05, and P≤0.001 were considered non-significant, significant, and highly significant, respectively."}, "testes": {"test_system": "testes", "experiment": "testes weights of rats after 90 days of treatment", "type": "in vivo, rat", "conditions": "vs control group GI", "protocol": "as §1"}, "[2]": {"experiment": "plasma levels of testosterone of rats after 90 days of treatment", "type": "in vivo, rat", "protocol": "as §1"}, "testis of the rats": {"test_system": "testis of the rats", "experiment": "histological examination of the rat testis (light microscopy, hematoxylin-eosin)", "conditions": "90 days", "method": "The experiments in the Examples were conducted on 30 male albino rats of the Wister strain with an age range of 40-45 days (approximately 6 weeks) and a weight range of 68-122 g. […] The rats were provided feed and water, and bred in a private room with a temperature of 24±2° C., a relative humidity of 55±5%, and a 12-hour light/12-hour dark cycle.\nThe first treatment group (GI) was a control treatment group composed of 5 rats that were given distilled water orally throughout the experiment.\nThe second treatment group (GII) was composed of 5 rats that were orally administered with only the root extract of Costus speciosus at a dose of 2 mg/kg body weight/day.\nThe third treatment group (GIII) was composed of 5 rats that were orally administered with risperidone at a low dose of 1 mg/kg body weight/day.\nThe fourth treatment group (GIV) was composed of 5 rats that were orally administered with both risperidone at the low dose of 1 mg/kg body weight/day and the root extract of Costus speciosus at 2 mg/kg body weight/day.\nThe fifth treatment group (GV) was composed of 5 rats that were orally administered with risperidone at a high dose of 2 mg/kg body weight/day.\nThe sixth treatment group (GVI) was composed of 5 rats that were orally administered with both the high dose of risperidone at 2 mg/kg body weight/day and the root extract of Costus speciosus at 2 mg/kg body weight/day. […]"}, "[3]": {"conditions": "GV: risperidone high dose 2 mg/kg/day oral"}}}
{"smiles": "Cc1nc2n(c(=O)c1CCN1CCC(c3noc4cc(F)ccc34)CC1)CCCC2", "note": "[risperidone, Risperidone]", "values": [{"measurement": "body weight", "setting": "[1]; GIII: risperidone low dose 1 mg/kg/day oral, vs GI or GII", "result": "significant increase in body weight"}, {"measurement": "body weight", "setting": "[1]; GV: risperidone high dose 2 mg/kg/day oral, vs GIII (low dose risperidone)", "result": "significant increase in body weight"}, {"measurement": "testes weight", "setting": "testes; GIII: risperidone low dose 1 mg/kg/day oral", "result": "insignificant reduction in testes weight"}, {"measurement": "testes weight", "setting": "testes; [3]", "result": "insignificant reduction in testes weight"}, {"measurement": "plasma level of testosterone", "setting": "[2]; GIII: risperidone low dose 1 mg/kg/day oral, vs GIV (low dose + root extract)", "result": "insignificant reduction in the plasma level of testosterone"}, {"measurement": "plasma level of testosterone", "setting": "[2]; GV: risperidone high dose 2 mg/kg/day oral, vs GVI (high dose + root extract)", "result": "insignificant reduction in the plasma level of testosterone"}, {"measurement": "histological findings in the testis", "setting": "testis of the rats; GIII: risperidone low dose 1 mg/kg/day oral, vs GI", "result": "abnormal, disorganized, and atrophied seminiferous tubules (ST), disorganization of germinal epithelium, a loss of spermatogenic cell types (pointed by arrows), and a massive and wide-spread destruction of germ cells"}, {"measurement": "histological findings in the testis", "setting": "testis of the rats; [3]", "result": "degeneration of the germinal epithelium lining (arrowheads), vacuolation of seminiferous tubules (ST) (*), and intertubular oedema"}]}
